Values quoted from earlier work, collected in patent US20260130963A1, “COMPOSITIONS COMPRISING RED YEAST RICE” (Meda Pharma S.p.A., priority 2021, published 2026).
In brackets after ≈: the same amount, converted by molar mass.

Assays:
[1] = in vivo
[2] = “low solubility/high permeability”

CC[C@H](C)C(=O)O[C@H]1C[C@@H](C)C=C2C=C[C@H](C)[C@H](CC[C@@H]3C[C@@H](O)CC(=O)O3)[C@H]21 [Lovastatin]
water solubility: 0.4 µg/mL (≈ 0.989 µM)
half-life [1]: 1 to 2 h
BCS classification [2]: BCS Class II
